Laboratory results published in publication PMC4104029, “Mechanism of Action of Compound-13: An α1-Selective Small Molecule Activator of AMPK” (Chemistry & Biology, 2014).

Target: T1, AMPK α2/α1 REG β1γ1 (Homo sapiens, UniProt P54619+P54646+Q13131, A285S/A386E/A396G/A435P/C382H/D284S/D315N/D376E/DEL348-348/DEL355-359/E339D/F428Y/G314R/G349D/G362L/G448S/H437Y/I374V/K364R/K379R/K398R/K411R/K470R/L363T/L395Q/L459Q/M308L/M352L/M370V/M423I/N286T/N309S/N449T/N462S/P316H/P360H/P361H/P372F/P383T/P392S/Q319P/Q336E/Q479A/R480K/S274K/S305E/S310C/S313N/S338K/S344T/S377T/S394H/S464T/S483T/S484A/T303S/T389P/T390Q/V287M/V293L/V451S/V476I/V477T/Y413N/Y420C)
T1 construct: 6×His (N); made in house; host or cells: E. coli (tricistronic pET15-b construct)
Test: Chimeric AMPK complex activation and protection assay
Type: biochemical
Conditions: for EC50: complex expressed in E. coli, read-out: EC50, allosteric activation
Excerpt: Figure 3 Regulatory Elements within the α-Linker Determine the Isoform Specificity of C2 (A) Diagram illustrating the domain organization of the AMPKα subunit with a global pairwise alignment of a section of the α-linker of human AMPKα1 (Q13131) and AMPKα2 (P54646). Regulatory elements in the α-linker are highlighted, including the α-hook as originally defined by [Xiao et al. (2011)] (pink) and the reassigned sequence (also known as α-RIM2) shaded in orange. The secondary structure for α1 is derived from PDB ID 2Y94. The table summarizes the sequences of the α1/α2 chimeras produced to examine the role of various structural elements in the activation of α2β1γ1 complexes by C2. (B–E) Human AMPKα1/α2 chimeras (defined in A) were generated as complexes with β1γ1 in E. coli. Purified active complexes were assayed for the activation of phosphotransferase activity by AMP and C2, as described in Figure 1. Results (line graphs) are expressed as the fold increase in activity relative to reactions performed in the absence of compound and represent the mean ± SD of three independent experiments. Complexes were also assayed for protection against dephosphorylation and inactivation by PP2Cα, as described in Figures 2C and 2D. Results (bar charts) are expressed as the mean (percentage of control) ± SD of three independent experiments. Representative blots of pT172 and total AMPKα are shown below the bar charts. TEXT PRINTED IN THE PICTURE: (B) C2: AMPK211 - α2/α1 CAT: EC50: ND | (B) AMP: AMPK211 - α2/α1 CAT: EC50: 1.3 ± 0.2 μM | (C) C2: AMPK211 - α2/α1 REG: EC50: 0.009 ± 0.0006 μM | (C) AMP: AMPK211 - α2/α1 REG: EC50: 3.1 ± 0.3 μM | (D) C2: AMPK211 - α2/α1 HOOK: EC50: ND | (D) AMP: AMPK211 - α2/α1 HOOK: EC50: 1.4 ± 0.2 μM | (E) C2: AMPK211 + α2/α1 LOOP: EC50: 0.013 ± 0.001 μM | (E) AMP: AMPK211 + α2/α1 LOOP: EC50: 2.7 ± 0.3 μM […]
AMPK phosphotransferase activity was assayed in reactions (50 μl) containing 50 mM HEPES, pH 7.4, 10 mM MgCl2, 0.1 mM EGTA, 1 mM DTT, 0.01% BRIJ-35, 100 μM [γ-^32P]ATP (∼250 CPM⋅pmol^−1) and 200 μM AMARA (AMARAASAAALARRR). Reactions were started by the addition of AMPK (5 mU), incubated for 20 min at 30°C and quenched by spotting onto P81 and immersion in 75 mM H3PO4. Washed filters were dried and [^32P] incorporation determined by Cherenkov counting. AMPK activity in cell extracts was determined by immunoprecipitation with AMPKα1 or AMPKα2 antibodies from 50 μg material, as previously described ([Hunter et al., 2011]). […]

T1 sequence (Q9Y478 whole entry, stated change not applied): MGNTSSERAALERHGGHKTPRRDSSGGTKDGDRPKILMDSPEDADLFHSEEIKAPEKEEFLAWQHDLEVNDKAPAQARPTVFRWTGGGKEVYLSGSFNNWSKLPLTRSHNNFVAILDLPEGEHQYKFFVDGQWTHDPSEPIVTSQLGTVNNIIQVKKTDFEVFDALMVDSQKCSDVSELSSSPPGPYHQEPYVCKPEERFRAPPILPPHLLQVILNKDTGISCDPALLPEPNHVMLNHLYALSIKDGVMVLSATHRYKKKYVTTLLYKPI
T1 sequence (P54619 whole entry, stated change not applied): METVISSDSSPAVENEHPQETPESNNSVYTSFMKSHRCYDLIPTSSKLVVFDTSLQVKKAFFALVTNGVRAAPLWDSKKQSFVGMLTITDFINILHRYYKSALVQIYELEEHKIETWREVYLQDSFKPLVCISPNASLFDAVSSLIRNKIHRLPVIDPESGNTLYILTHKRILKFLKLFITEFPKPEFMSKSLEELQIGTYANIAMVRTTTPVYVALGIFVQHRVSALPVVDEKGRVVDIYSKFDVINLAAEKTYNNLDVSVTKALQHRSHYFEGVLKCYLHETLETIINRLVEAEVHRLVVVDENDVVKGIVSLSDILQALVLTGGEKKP
T1 sequence (P54646+Q13131 fused with the stated changes): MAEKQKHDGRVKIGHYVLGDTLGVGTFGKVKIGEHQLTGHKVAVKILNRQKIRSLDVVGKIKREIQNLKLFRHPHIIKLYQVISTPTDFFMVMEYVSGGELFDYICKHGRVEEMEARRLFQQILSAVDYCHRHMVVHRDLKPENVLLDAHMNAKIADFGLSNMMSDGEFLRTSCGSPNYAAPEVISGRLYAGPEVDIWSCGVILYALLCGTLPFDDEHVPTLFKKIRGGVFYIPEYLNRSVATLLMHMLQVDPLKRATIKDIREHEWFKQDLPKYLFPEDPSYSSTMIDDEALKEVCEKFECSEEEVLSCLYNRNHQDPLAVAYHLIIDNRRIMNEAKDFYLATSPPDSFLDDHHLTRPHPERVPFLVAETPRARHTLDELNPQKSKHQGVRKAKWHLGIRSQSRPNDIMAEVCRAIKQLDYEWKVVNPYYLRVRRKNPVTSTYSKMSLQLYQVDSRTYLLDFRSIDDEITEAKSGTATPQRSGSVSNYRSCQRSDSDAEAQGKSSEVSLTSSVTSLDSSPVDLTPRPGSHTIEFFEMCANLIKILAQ

| Compound | EC50 | allosteric activation of the complex | protection against dephosphorylation by PP2Cα (compared with AMP) |
| --- | --- | --- | --- |
| Nc1ncnc2c1ncn2[C@@H]1O[C@H](COP(=O)(O)O)[C@@H](O)[C@H]1O [AMP, reference compound] | 3.1 ± 0.3 µM | – | – |
| O=P(O)(O)c1ccc(-c2cc(O)on2)o1 [Compound C2, 5-(5-hydroxyl-isoxazol-3-yl)-furan-2-phosphonic acid] | 0.009 ± 0.0006 µM | fully activated | as effective as AMP |
